In US9173842B2, “Stable pharmaceutical composition comprising a hydrosoluble vinflunine salt” (PIERRE FABRE MEDICAMENT, priority 2007, dated 2015):

Assay: Stability tests at 5° C. and 25° C. under sealed conditions after 3 months (impurity content)
Format: physicochemical
Details: sealed packaging, % of the total weight of the composition
Method: The composition in the forms of capsule A and B were packaged in sealed packers. They were stored for 3 months at 5° C. at an external humidity level of 20%, or at 25° C. at an external humidity level of 60%.
The weight content in impurities (in % of the total weight of the composition) was assayed immediately […], then after 3 months of storage. The difference between these two percentages gives the change in impurity content.
It is compared to that obtained for freeze-dried vinflunine ditartrate stored under the same conditions.

vinflunine ditartrate
Changes in impurity levels at 5° C. (3 months at 5° C., external humidity 20%): +0.8%
Changes in impurity levels at 25° C. (3 months at 25° C., external humidity 60%): +1.9%
